We go through 14 molecules from patent publication US20180136242A1 (Autotelic LLC, priority 2014, published 2018).

For assay [1], the system named is 8A10 anti-taxane IgG2a antibody. The assay is described as follows: Paclitaxel antibody cross-reactivity, IC50 towards taxanes (8A10). The format is binding, mouse. The following applies: antibody 8A10. From the text: (§1) The antibodies of the invention were generated by immunizing mice with either TAXOL® or baccatin conjugated to KLH. The antibodies are summarized as: 3C6 anti TAXOL® IgG2a,k, 3H5 anti-baccatin III IgG1, 8A10 anti-taxane IgG2a. Cross-reactivity profile of 3C6, 3H5, and 8A10 antibodies are shown by their IC50 values towards various taxanes in Table 1.

Assay [2] has as its system 3H5 anti-baccatin III IgG1 antibody. The assay is described as follows: Paclitaxel antibody cross-reactivity, IC50 towards taxanes (3H5). The format is binding, mouse. The following applies: antibody 3H5; read-out: IC50 towards taxane, 3H5.
From the text: as §1

Assay [3] deals with 3C6 anti TAXOL IgG2a,k antibody. Kind of assay: Paclitaxel antibody cross-reactivity, IC50 towards taxanes (3C6). The format is binding, mouse. The following applies: antibody 3C6; read-out: IC50 towards taxane, 3C6.
From the text: as §1

A further assay concerns the target BSA-paclitaxel antigen (Bos taurus, UniProt P02769). Kind of assay: Direct binding ELISA of intact IgGs to BSA-paclitaxel antigen (FIG. 4). The following applies: read-out: apparent Kd. On the procedure:
FIG. 4 is a graph illustrating direct binding of intact IgGs (8A10 and 3C6) of the invention to a BSA-paclitaxel antigen on an ELISA.
Antibody affinity. 50 μL of BSA-paclitaxel antigen at a concentration of 3.5 μg/mL in 1× PBS was bound to a plate and incubated at 4° C. overnight. The plate was washed four ties with PBS/0.05% Tween 20. The plate was blocked for 2 hours with 1% BSA in PBS/0.05% Tween 20 at room temperature. The plate was washed four ties with PBS/0.05% Tween 20. 50 μL of antibody sample (8A10 and 3C6) was bound (start at 300 nM and titer down by 3s). The plate was washed four times with PBS/0.05% Tween 20. 50 μL of goat anti mIgG horseradish peroxidase (1:5000 dilution) was bound and then 50 μL of substrate solution TMB was added and the color allowed to develop. The reaction was stopped with 50 μL 1M HCl and the optical density was read at 450 nm.
(In general: In an ELISA, binding on a coated surface is turned into a signal by an enzyme label.)

The target in assay [4] is T1, BSA-paclitaxel (Bos taurus, UniProt P02769). Kind of assay: Biacore 3000 SPR, antibody on the chip. The format is binding. The following applies: Biacore 3000, antibody on the chip (3C6: single point).
T1 sequence (P02769 25-607): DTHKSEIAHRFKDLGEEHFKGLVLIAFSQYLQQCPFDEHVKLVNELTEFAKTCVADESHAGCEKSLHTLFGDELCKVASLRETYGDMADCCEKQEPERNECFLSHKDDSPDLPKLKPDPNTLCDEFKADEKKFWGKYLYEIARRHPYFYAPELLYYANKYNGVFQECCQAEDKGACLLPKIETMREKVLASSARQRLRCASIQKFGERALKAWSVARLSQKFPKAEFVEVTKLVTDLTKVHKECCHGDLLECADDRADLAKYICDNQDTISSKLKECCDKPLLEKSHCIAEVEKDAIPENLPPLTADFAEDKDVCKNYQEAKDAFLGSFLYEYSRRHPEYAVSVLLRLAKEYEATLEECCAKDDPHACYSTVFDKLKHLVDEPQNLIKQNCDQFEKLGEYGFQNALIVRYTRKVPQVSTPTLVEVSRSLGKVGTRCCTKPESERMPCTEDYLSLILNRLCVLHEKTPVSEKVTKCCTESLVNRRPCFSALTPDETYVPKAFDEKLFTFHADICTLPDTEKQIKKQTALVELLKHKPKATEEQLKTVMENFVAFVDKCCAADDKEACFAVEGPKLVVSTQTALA
Assay [5] has as its target T1, BSA-paclitaxel. Kind of assay: Biacore T-200 SPR, antibody on the chip. The format is binding. The following applies: Biacore T-200, antibody on the chip. For orientation: In SPR one partner is held on a chip, and binding of the other changes the refractive index at the surface.
The target of a further assay is BSA-paclitaxel (BSA-Ag) (Bos taurus, UniProt P02769). The assay is described as follows: Biacore 3000 SPR kinetic analysis, antigen on the chip. The format is binding. The following applies: for Dissociation rate constant (kd) / ka: 25° C. On the procedure:
In this example, a method for determining antibody properties is described. The methods were carried out by Precision Antibody, Inc. (Columbia, Md.) using a Biacore Assay.
Binding experiments were performed on a Biacore 3000 instrument (GE, Pittsburgh, Pa.) at 25° C. Approximately 13,000 RU of anti-BSA ab (Life Technologies, A11133, lot 1637270) was directly immobilized on flow cell 2 of CM5 chip by amine coupling (EDC/NHS). 110-120 RU of BSA-paclitaxel (BSA-Ag) was captured. Flow cell 1 was treated the same way but without the ligand and used as a blank surface for reference subtraction. The unoccupied sites were blocked with 1 M ethanol amine. Analytes Ab 1 (8A10) and Ab2 (3C6) were flowed over the chip at variable concentrations. Binding of antigen to the antibodies was monitored in real time to obtain on (ka) and off (kd) rates. The equilibrium constant (KD) was calculated from the observed ka and kd.
Full kinetic analysis was performed using analyte concentrations as indicated with 2-fold serial dilutions. The starting concentration was 200 nM, followed by 100, 50, 25, 12.5, and 0 nM. The 100 nM concentration was run in duplicates to confirm the reproducibility of the assay.
The assay buffer was 10 mM HEPES buffer (pH 7.4), 150 mM NaCl, 3 mM EDTA, 0.05% P20 (polyoxyethylenesorbitan). The regeneration buffer was 10 mM Glycine buffer (pH 2.0). The conjugation buffer was 10 mM sodium acetate buffer (pH 5.0). The flow rate used for capturing the ligand was 1 μL/min. The flow rate for kinetics analysis was 50 μL/min.
Chi square (χ^2) analysis was carried out between the actual sensorgram and the sensorgram generated from the BlAnalysis software to determine the accuracy of the analysis. A χ^2 value within 1-2 is considered significant (accurate) and below 1 is highly significant (highly accurate).

Setting [6] is: BSA-Ag (110RU) ligand, full kinetic analysis.
Where [7] appears, read: BSA-Ag (110RU) ligand, calculated from ka and kd.
[8] abbreviates: Biacore 3000, antigen on the chip.

Chain of BSA-paclitaxel (BSA-Ag) (P02769 25-607): as above
Chain of BSA-paclitaxel antigen (P02769 25-607): as above

In general, IC50 refers to the concentration at which inhibition is half-maximal. Turning to `CC(=O)O[C@H]1C(=O)[C@@]2(C)[C@H]([C@H](OC(=O)c3ccc(C(F)(F)F)cc3)[C@]3(O)C[C@H](OC(=O)[C@H](O)[C@@H](NC(=O)c4ccccc4)c4ccccc4)C(C)=C1C3(C)C)[C@]1(OC(C)=O)CO[C@@H]1C[C@@H]2O` [2-debenzoyl-2-(p-trifluoromethylbenzoyl)taxol], the IC50 in assay [1], in assay [2] and in assay [3] was over 293 nM each time.
For `CC(=O)O[C@@]12CO[C@@H]1C[C@H](O)[C@@]1(C)C(=O)[C@H](O)C3=C(C)[C@@H](OC(=O)[C@H](O)[C@@H](NC(=O)c4ccccc4)c4ccccc4)C[C@@](O)([C@@H](OC(=O)c4ccccc4)[C@H]21)C3(C)C` [7-epi-10-deacetyltaxol], the IC50 was 15 nM in assay [1], over 333 nM in assay [2] and 25 nM in assay [3].
For `CC(=O)O[C@@]12CO[C@@H]1C[C@H](O[C@@H]1OC[C@@H](O)[C@H](O)[C@H]1O)[C@@]1(C)C(=O)[C@H](O)C3=C(C)[C@@H](OC(=O)[C@H](O)[C@@H](NC(=O)c4ccccc4)c4ccccc4)C[C@@](O)([C@@H](OC(=O)c4ccccc4)[C@H]21)C3(C)C` [7-xylosyl-10-deacetyltaxol], the IC50 is 17 nM in assay [1], over 286 nM in assay [2] and 30 nM in assay [3].
For the molecule `C/C=C(\C)C(=O)N[C@@H](c1ccccc1)[C@@H](O)C(=O)O[C@H]1C[C@@]2(O)[C@@H](OC(=O)c3ccccc3)[C@@H]3[C@]4(OC(C)=O)CO[C@@H]4C[C@H](O)[C@@]3(C)C(=O)[C@H](OC(C)=O)C(=C1C)C2(C)C` [cephalomannine], the half-maximal inhibitory concentration (IC50) in assay [1] is 8 nM; in assay [2] it was over 325 nM; in assay [3], 220 nM.
On to `CC(=O)O[C@@]12CO[C@@H]1C[C@H](O)[C@@]1(C)C(=O)[C@H](O)C3=C(C)[C@@H](O)C[C@@](O)([C@@H](OC(=O)c4ccccc4)[C@H]21)C3(C)C` [10-deacetylbaccatin III], for which the IC50 in assay [1] is 21 nM; in assay [2], 230 nM; in assay [3], over 551 nM.
Turning to `CC(=O)OC[C@@]1(O)[C@H]2[C@H](OC(=O)c3ccccc3)[C@]3(O)C[C@H](OC(=O)[C@H](O)[C@@H](NC(=O)c4ccccc4)c4ccccc4)C(C)=C([C@@H](OC(C)=O)C(=O)[C@]2(C)[C@@H](O)C[C@@H]1O)C3(C)C` [20-acetoxy-4-deacetyl-5-epi-20,O-secotaxol], the IC50 in assay [1] was over 293 nM; in assay [2], over 310 nM; in assay [3] it was over 310 nM.
In the case of `CC(=O)O[C@@]12CO[C@@H]1C[C@H](O)[C@@]1(C)C(=O)[C@H](O)C3=C(C)[C@@H](OC(=O)[C@H](O)[C@@H](NC(=O)c4ccccc4)c4ccccc4)C[C@@](O)([C@@H](OC(=O)c4ccccc4)[C@H]21)C3(C)C` [10-deacetyltaxol], the IC50 in assay [1] was 10 nM; in assay [2] it was over 333 nM; in assay [3], 15 nM.
As to `CC(=O)O[C@H]1C(=O)[C@@]2(C)[C@H]([C@H](OC(=O)c3ccccc3)[C@]3(O)C[C@H](OC(=O)[C@H](O)[C@@H](NC(=O)c4ccccc4)c4ccccc4)C(C)=C1C3(C)C)[C@]1(OC(C)=O)CO[C@@H]1C[C@@H]2O` [7-epi-taxol], the IC50 in assay [1] is 50 nM; in assay [2], over 316 nM; in assay [3], 80 nM.
As for `CC(=O)O[C@H]1C(=O)[C@@]2(C)[C@H]([C@H](OC(=O)c3ccccc3)[C@]3(O)C[C@H](O)C(C)=C1C3(C)C)[C@]1(OC(C)=O)CO[C@@H]1C[C@@H]2O` [baccatin III], the IC50 in assay [1] is 12 nM; in assay [2] it was 10 nM; in assay [3], over 511 nM.
As for `CC(=O)O[C@@]12CO[C@@H]1C[C@@H](O)[C@@]1(C)C(=O)[C@H](O)C3=C(C)[C@@H](O)C[C@@](O)([C@@H](OC(=O)c4ccccc4)[C@H]21)C3(C)C` [7-epi-10-deacetylbaccatin III], the IC50 in assay [1] was 27 nM; in assay [2], 150 nM; in assay [3], over 469 nM.
With `CC(=O)O[C@H]1C(=O)[C@@]2(C)[C@H]([C@H](OC(=O)c3ccccc3)[C@]3(O)C[C@H](OC(=O)[C@H](O)[C@@H](NC(=O)c4ccccc4)c4ccccc4)C(C)=C1C3(C)C)[C@]1(OC(C)=O)CO[C@@H]1C[C@@H]2O` [paclitaxel (TAXOL ®), paclitaxel], the IC50 is 7 nM in assay [1], over 316 nM in assay [2] and 10 nM in assay [3].
As to `CC(=O)O[C@H]1C(=O)[C@]2(C)[C@H](O)C[C@H]3OC[C@@]3(OC(C)=O)[C@H]2[C@H](OC(=O)c2ccccc2)[C@]2(O)C[C@H](O)C(C)=C1C2(C)C` [baccatin V], the IC50 in assay [1] was 10 nM; in assay [2] it was 10 nM; in assay [3], over 460 nM.

B1: 8A10: anti-taxane IgG2a mouse monoclonal antibody; variable regions SEQ ID NOS: 2 and 4 (antibody, V domains shown)
VL: DIVMTQSQKFMSITLGERVSITCKPSQNVGSAVTWWQQKPGQSPKLLIYSASNRYTGVPDRFTGSGSGTDFTLTISNVQSEDLADYFCQQYSSYPYTFGGGTKLEIKR
VH: EVQLQQSGPELVKPGASVKISCKASGYTFTDSTMNWVKQSHGKSLEWIGEIDPNNGGTNYNQKFKGKATLTVDKSSSTAYMELRSLTSEDSAVYYCARGVWGQGTTLTVSS
modifications: mouse IgG2a constant regions
Consider B1, for which, in the assay with BSA-paclitaxel antigen, the Kd was about 10 nM. In addition, in the assay with BSA-paclitaxel [4], the Kd is 1.3 nM, the Off-rate is reported as 2.0 × 10^−3, the On-rate is 1.6 × 10^6 and the Rmax is on record as 3.6. Moreover, in the assay with BSA-paclitaxel [5], the Kd stood at 3.6 nM, the Off-rate is given as 8.7 × 10^−4, the On-rate is listed as 2.4 × 10^5 and the Rmax is listed as 8.6. Besides, in the assay with BSA-paclitaxel (BSA-Ag) (setting [6]), the “Dissociation rate constant (kd)” value turned out to be 0.000304 s⁻¹, the ka turned out to be 470000 M⁻¹ s⁻¹, the KA was 1.55e+09 M⁻¹ and the Rmax worked out at 4.01. Further, in the assay with BSA-paclitaxel (BSA-Ag) (setting [7]), the Kd is 0.645 nM. For the same molecule, in the assay with BSA-paclitaxel (BSA-Ag) (setting [8]), the Kd stood at 0.65 nM, the Off-rate is 3.0 × 10^−4, the On-rate is reported as 4.7 × 10^5 and the Rmax amounted to 4.0.

B2: 3C6 (antibody, V domains shown)
VH: EVQLQESGPSLVKPSQTLSLTCSVTGDSITSGYWNWIRKFPGNRLEYMGYISYSGSTYYNPSLKSRISITRDTSKNQYYLHLTSVTTEDTATYYCAQGDGAYWGQGTTLTVSS
VL: DVVMTQTPLSLPVSLGDQASISCRSRQSLVHSNGNTYLHWYLQKPGQSPKLLIYKVSNRFSGVPDRFSGSGSGTEFTLEISRVEAEDLGVYFCSQSTHVPPTFGGGTKLEIK
As for B2, the Kd with BSA-paclitaxel antigen was about 10 nM. In the assay with BSA-paclitaxel [4], the Kd came out at 10 nM, the Off-rate is recorded as 2.9 × 10^−4, the On-rate was 2.8 × 10^4 and the Rmax worked out at 54.4. Also, in the assay with BSA-paclitaxel [5], the Kd stood at 12 nM, the Off-rate is given as 2.2 × 10^−4, the On-rate is on record as 1.8 × 10^4 and the Rmax came to 112. Also, in the assay with BSA-paclitaxel (BSA-Ag) (setting [6]), the “Dissociation rate constant (kd)” value amounted to 0.000967 s⁻¹, the ka came out at 20500 M⁻¹ s⁻¹, the KA was found to be 2.12e+07 M⁻¹ and the Rmax was 15.6. For the same molecule, the Kd in the assay with BSA-paclitaxel (BSA-Ag) (setting [7]) was 47.2 nM. Besides, in the assay with BSA-paclitaxel (BSA-Ag) (setting [8]), the Kd amounted to 47 nM, the Off-rate is reported as 9.7 × 10^−4, the On-rate is 2.1 × 10^4 and the Rmax came to 15.6.
